Measurements as given in PubChem BioAssay (NCI).
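Test compounds were applied to cells in 96-well plates for 48 hours at 5 doses. Definition used: TGI = concentration required for complete inhibition of growth.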

What was measured:
Assay in all cases: growth of human tumour cells (NCI), 48 h
[1] = tested on: 786-0 renal
[2] = tested on: OVCAR-3 ovarian
[3] = tested on: MCF7 breast
[4] = tested on: OVCAR-4 ovarian
[5] = tested on: DU-145 prostate
[6] = tested on: K-562 leukemia
[7] = tested on: HS 578T breast
[8] = tested on: HCT-15 colon
[9] = tested on: HOP-62 NSCLC
[10] = tested on: SF-539 CNS
[11] = tested on: EKVX NSCLC
[12] = tested on: HOP-92 NSCLC
[13] = tested on: ACHN renal
[14] = tested on: NCI-H460 lung
[15] = tested on: MDA-MB-435
[16] = tested on: SK-MEL-28 melanoma
[17] = tested on: NCI-H522 lung
[18] = tested on: NCI/ADR-RES ovarian
[19] = tested on: NCI-H23 lung
[20] = tested on: CAKI-1 renal
[21] = tested on: SF-268 CNS
[22] = tested on: CCRF-CEM leukemia
[23] = tested on: SW-620 colon
[24] = tested on: RPMI-8226 leukemia
[25] = tested on: A498 renal
[26] = tested on: HT29 colon
[27] = tested on: KM12 colon
[28] = tested on: SK-OV-3 ovarian
[29] = tested on: TK-10 renal
[30] = tested on: UO-31 renal
[31] = tested on: M14 melanoma
[32] = tested on: OVCAR-5 ovarian
[33] = tested on: UACC-257 melanoma
[34] = tested on: NCI-H226 lung
[35] = tested on: HCT-116 colon
[36] = tested on: SK-MEL-2 melanoma
[37] = tested on: T-47D breast
[38] = tested on: U251 CNS
[39] = tested on: OVCAR-8 ovarian
[40] = tested on: HL-60(TB) leukemia
[41] = tested on: MOLT-4 leukemia
[42] = tested on: MDA-MB-231 breast
[43] = tested on: SF-295 CNS
[44] = tested on: SR leukemia
[45] = tested on: SK-MEL-5 melanoma
[46] = tested on: LOX IMVI melanoma
[47] = tested on: HCC-2998 colon
[48] = tested on: IGROV1 ovarian
[49] = tested on: PC-3 prostate
[50] = tested on: RXF 393 renal
[51] = tested on: SN12C renal
[52] = tested on: A549 NSCLC
[53] = tested on: BT-549 breast
[54] = tested on: SNB-19 CNS
[55] = tested on: SNB-75 CNS
[56] = tested on: MALME-3M melanoma

Work on `O=C1/C(=C/C=C/c2ccccc2)N=C(c2ccccc2)N1C1Nc2cc3c(cc2S1)NC(N1C(=O)/C(=C/C=C/c2ccccc2)N=C1c1ccccc1)S3` (centres undefined) yielded a TGI [1] greater than 100 µM, a TGI [2] greater than 100 µM and a TGI [3] greater than 100 µM. For the same molecule, the TGI [4] was greater than 100 µM, the TGI [5] was greater than 100 µM and the TGI [6] was greater than 100 µM. It also gave a TGI [7] greater than 100 µM, a TGI [8] greater than 100 µM and a TGI [9] greater than 100 µM. The TGI [10] was greater than 100 µM, the TGI [11] was greater than 100 µM and the TGI [12] was 85.2 µM. For the same molecule, the TGI [13] was greater than 100 µM, the TGI [14] was greater than 100 µM and the TGI [15] was greater than 100 µM. For the same molecule, the TGI [16] was greater than 100 µM, the TGI [17] was 28.8 µM and the TGI [18] was greater than 100 µM. It also gave a TGI [19] greater than 100 µM, a TGI [20] greater than 100 µM and a TGI [21] greater than 100 µM. For the same molecule, the TGI [22] was greater than 100 µM, the TGI [23] was greater than 100 µM and the TGI [24] was 57 µM. The TGI [25] was greater than 100 µM, the TGI [26] was greater than 100 µM and the TGI [27] was greater than 100 µM. It also gave a TGI [28] greater than 100 µM, a TGI [29] greater than 100 µM and a TGI [30] greater than 100 µM. It also gave a TGI [31] greater than 100 µM, a TGI [32] greater than 100 µM and a TGI [33] greater than 100 µM. It also gave a TGI [34] greater than 100 µM, a TGI [35] greater than 100 µM and a TGI [36] greater than 100 µM. For the same molecule, the TGI [37] was greater than 100 µM, the TGI [38] was greater than 100 µM and the TGI [39] was greater than 100 µM. For the same molecule, the TGI [40] was greater than 100 µM, the TGI [41] was 0.302 µM and the TGI [42] was greater than 100 µM. It also gave a TGI [43] greater than 100 µM, a TGI [44] of 27.8 µM and a TGI [45] greater than 100 µM. The TGI [46] was greater than 100 µM, the TGI [47] was 37.2 µM and the TGI [48] was greater than 100 µM. For the same molecule, the TGI [49] was greater than 100 µM and the TGI [50] was greater than 100 µM.

`Cc1nc(Cl)nc(Cl)c1C` gave a TGI [51] greater than 100 µM, a TGI [1] greater than 100 µM and a TGI [2] greater than 100 µM. For the same molecule, the TGI [3] was greater than 100 µM, the TGI [52] was greater than 100 µM and the TGI [4] was greater than 100 µM. The TGI [53] was greater than 100 µM, the TGI [6] was greater than 100 µM and the TGI [7] was greater than 100 µM. It also gave a TGI [8] greater than 100 µM, a TGI [9] greater than 100 µM and a TGI [10] greater than 100 µM. The TGI [11] was greater than 100 µM, the TGI [13] was greater than 100 µM and the TGI [54] was greater than 100 µM. The TGI [14] was greater than 100 µM, the TGI [55] was greater than 100 µM and the TGI [15] was greater than 100 µM. It also gave a TGI [16] greater than 100 µM, a TGI [17] greater than 100 µM and a TGI [18] greater than 100 µM. It also gave a TGI [19] greater than 100 µM, a TGI [21] greater than 100 µM and a TGI [22] greater than 100 µM. It also gave a TGI [23] greater than 100 µM, a TGI [24] greater than 100 µM and a TGI [26] greater than 100 µM. The TGI [27] was greater than 100 µM, the TGI [28] was greater than 100 µM and the TGI [29] was greater than 100 µM. The TGI [30] was greater than 100 µM, the TGI [31] was greater than 100 µM and the TGI [32] was greater than 100 µM. For the same molecule, the TGI [33] was greater than 100 µM, the TGI [34] was greater than 100 µM and the TGI [36] was greater than 100 µM. For the same molecule, the TGI [38] was greater than 100 µM, the TGI [39] was greater than 100 µM and the TGI [40] was greater than 100 µM. It also gave a TGI [41] greater than 100 µM, a TGI [56] greater than 100 µM and a TGI [43] greater than 100 µM. For the same molecule, the TGI [44] was greater than 100 µM, the TGI [45] was greater than 100 µM and the TGI [46] was greater than 100 µM. The TGI [47] was greater than 100 µM, the TGI [48] was greater than 100 µM and the TGI [49] was greater than 100 µM. The TGI [50] was greater than 100 µM.
